Reference: patent US7569539B2, “Oral administration of calcitonin” (Novartis AG, priority 2002, dated 2009)
Read-outs that look alike come from different tables or passages of the source.

Experiments:
[1] = Effect of meal timing on plasma sCT after oral sCT/5-CNAC tablet in human subjects (Example 7); type: in vivo; details: for AUC / Cmax: both sexes, human, plasma, po, 1 mg, oral tablet 1 mg sCT + 5-CNAC disodium salt, plasma sCT; for AUC: read-out: Mean AUC ± SD; for Cmax: read-out: Mean Cmax ± SD
Procedure: The effect of administration of a tablet formulation of sCT in combination with 5-CNAC disodium salt at various time intervals relative to meals is measured in human subjects.
The tablet formulation employed is a formulation according to Example 5, comprising 1 mg sCT and 5-CNAC disodium salt in an amount corresponding to […] of 5-CNAC.
The study employs a seven-period, randomized, open-label, balanced Latin-square, crossover design. Twenty-one human healthy adult subjects (7 males, 7 pre-menopausal females and 7 post-menopausal females), between the ages of 18 and 65 years of age are involved. Pre- and post-menopausal females are matched for height (±0.5 cm) and weight (±8%).
The study consists of a screening period (−21 to −2 days prior to dosing), a baseline period (24-hour period prior to dosing, or day −1), and a treatment period comprised of seven daily single-dose administrations. Subjects are instructed to fast for at least 8 hours prior to undergoing screening evaluations so that blood samples can be drawn for bioanalytical testing. At baseline, subjects are admitted to the study center at least 12 hours prior to dosing and remain domiciled until study completion (one day following the final dose of study drug, or study day 8). The interdose interval between each treatment will be approximately 24 hours. Subjects are randomized according to the treatment allocation schedule to receive a single oral dose under either fasted or fed conditions. Under fed conditions, meal times vary relative to a fixed dosing time, in order to assess the effect of varying meal and dose intervals on drug pharmacokinetics.
During the treatment period, subjects fast overnight for a minimum of 10 hours prior to dosing, except when the specified treatment condition requires a meal to be served pre-dose. Dosing occurs between 9 and 10 AM for seven consecutive days. Meal times vary around a fixed dosing interval over a seven-day treatment period in order to determine optimal dosing times relative to food intake. Included is the administration of study drug under fasting conditions, which will serve as the reference condition to assess drug pharmacokinetics under varying meal and dose intervals, as well as study drug administration with meals, to determine the extent of food interaction.
The order in which subjects are initially dosed remains consistent throughout the study, so that the first subject dosed in period 1 remains the first subject dosed across all treatment conditions. Except where fasting is the specified treatment condition, subjects receive a standardized FDA (or equivalent) high-fat breakfast at a different time each day relative to dosing. Subjects whose treatment assignment is to fast, continue fasting for at least four hours post-dose, after which they may receive a standard meal at the specified time. Sampling for pharmacokinetic assessments are performed at scheduled intervals for up to 8 hours post-dose. If pharmacokinetic sampling times coincide with the start of a meal, sampling occurs first. Subjects are discharged from the study center one day following the final dose of study drug (day 8), after the completion of all safety evaluations.
Pharmacokinetic blood sampling is performed each day at the following timepoints (unless otherwise specified, when sampling times coincide with the start of a meal, sampling is done first): pre-dose (5 mL blood on each treatment day, lithium-heparin tubes to yield plasma), and then 5, 10, 15, 30, 45, 60, 90, 120, 180 and 240 minutes post-dose (3 mL blood), lithium-heparin tube to yield plasma). For treatment conditions B, C, D and E (see table below) one additional sample (3 mL) is obtained at 5 minutes after the start of the meal. For treatment condition E, the 10 minute sample also represents the 5-minute post-meal sample. For treatment B only, one additional sample is obtained at 15 minutes after the start of the meal (i.e., at 75 minutes post-dose). […]

[2] = as above; type: in vivo; details: tablet 1 mg sCT + 5-CNAC disodium salt (equivalent to 200 mg 5-CNAC), 5 to 60 minutes prior to a meal instead of with a meal
[3] = Treatment group A: after overnight fast
[4] = Treatment group B: 1 hour pre-meal
[5] = Treatment group C: 30 minutes pre-meal
[6] = Treatment group D: 15 minutes pre-meal
[7] = Treatment group E: 5 minutes pre-meal
[8] = Treatment group G: 2.5 hours post-meal

- plasma levels of sCT ([1]; Groups C and D: administered either 15 or 30 minutes before a meal): maximum plasma levels
- plasma levels of sCT ([1]; administration with a meal (Group F)): negligible
- AUC [1, 3]: 0.0663 ± 0.0422 ng·h/mL
- Cmax [1, 3]: 0.139 ± 0.0743 ng/mL
- AUC [1, 4]: 0.0634 ± 0.0379 ng·h/mL
- Cmax [1, 4]: 0.136 ± 0.0647 ng/mL
- AUC [1, 5]: 0.079 ± 0.0793 ng·h/mL
- Cmax [1, 5]: 0.162 ± 0.142 ng/mL
- AUC [1, 6]: 0.0721 ± 0.0451 ng·h/mL
- Cmax [1, 6]: 0.162 ± 0.0679 ng/mL
- AUC [1, 7]: 0.0604 ± 0.0674 ng·h/mL
- Cmax [1, 7]: 0.149 ± 0.151 ng/mL
- AUC ([1]; Treatment group F: with meal): 0.0126 ± 0.0185 ng·h/mL
- Cmax ([1]; Treatment group F: with meal): 0.024 ± 0.0267 ng/mL
- AUC [1, 8]: 0.0611 ± 0.114 ng·h/mL
- Cmax [1, 8]: 0.0798 ± 0.134 ng/mL
- increase (Cmax and AUC) in oral absorption [2]: ~5 fold
Compound: CC(C)C[C@H](NC(=O)[C@H](CCCCN)NC(=O)CNC(=O)[C@H](CC(C)C)NC(=O)[C@@H](NC(=O)[C@@H]1CSSC[C@H](N)C(=O)N[C@@H](CO)C(=O)N[C@@H](CC(N)=O)C(=O)N[C@@H](CC(C)C)C(=O)N[C@@H](CO)C(=O)N[C@@H]([C@@H](C)O)C(=O)N1)C(C)C)C(=O)N[C@@H](CO)C(=O)N[C@@H](CCC(N)=O)C(=O)N[C@@H](CCC(=O)O)C(=O)N[C@@H](CC(C)C)C(=O)N[C@@H](Cc1c[nH]cn1)C(=O)N[C@@H](CCCCN)C(=O)N[C@@H](CC(C)C)C(=O)N[C@@H](CCC(N)=O)C(=O)N[C@H](C(=O)N[C@@H](Cc1ccc(O)cc1)C(=O)N1CCC[C@H]1C(=O)N[C@@H](CCCNC(=N)N)C(=O)N[C@H](C(=O)N[C@@H](CC(N)=O)C(=O)N[C@H](C(=O)NCC(=O)N[C@@H](CO)C(=O)NCC(=O)N[C@H](C(=O)N1CCC[C@H]1C(N)=O)[C@@H](C)O)[C@@H](C)O)[C@@H](C)O)[C@@H](C)O [sCT, salmon calcitonin]
